Assay results as given in the kinase profiling compilation of Christmann-Franck et al. (2016).

Legend:
Test in all cases: split-luciferase competition binding
[1] = biological target: AKT1 (human) (UniProt P31749); details: compound 10.0 µM
[2] = biological target: AKT2 (human) (UniProt P31751); details: compound 10.0 µM
[3] = biological target: AKT3 (human) (UniProt Q9Y243); details: compound 10.0 µM
[4] = biological target: AURKA (human) (UniProt O14965); details: compound 10.0 µM
[5] = biological target: AURKB (human) (UniProt Q96GD4); details: compound 10.0 µM
[6] = biological target: AURKC (human) (UniProt Q9UQB9); details: compound 10.0 µM
AURKC (human), sequence (Q9UQB9 whole entry, looked up): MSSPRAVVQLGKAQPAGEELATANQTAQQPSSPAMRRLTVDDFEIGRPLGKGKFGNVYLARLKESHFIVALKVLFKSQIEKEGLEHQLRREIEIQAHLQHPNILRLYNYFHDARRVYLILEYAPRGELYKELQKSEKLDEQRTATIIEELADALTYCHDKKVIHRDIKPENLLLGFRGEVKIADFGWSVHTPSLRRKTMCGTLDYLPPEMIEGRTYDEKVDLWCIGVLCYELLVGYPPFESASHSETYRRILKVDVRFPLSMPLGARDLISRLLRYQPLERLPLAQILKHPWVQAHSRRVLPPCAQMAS

[7] = biological target: DMPK (human) (UniProt Q09013); details: compound 10.0 µM
[8] = biological target: PDPK1 (human) (UniProt O15530); details: compound 10.0 µM
PDPK1 (human), sequence (O15530 whole entry, looked up): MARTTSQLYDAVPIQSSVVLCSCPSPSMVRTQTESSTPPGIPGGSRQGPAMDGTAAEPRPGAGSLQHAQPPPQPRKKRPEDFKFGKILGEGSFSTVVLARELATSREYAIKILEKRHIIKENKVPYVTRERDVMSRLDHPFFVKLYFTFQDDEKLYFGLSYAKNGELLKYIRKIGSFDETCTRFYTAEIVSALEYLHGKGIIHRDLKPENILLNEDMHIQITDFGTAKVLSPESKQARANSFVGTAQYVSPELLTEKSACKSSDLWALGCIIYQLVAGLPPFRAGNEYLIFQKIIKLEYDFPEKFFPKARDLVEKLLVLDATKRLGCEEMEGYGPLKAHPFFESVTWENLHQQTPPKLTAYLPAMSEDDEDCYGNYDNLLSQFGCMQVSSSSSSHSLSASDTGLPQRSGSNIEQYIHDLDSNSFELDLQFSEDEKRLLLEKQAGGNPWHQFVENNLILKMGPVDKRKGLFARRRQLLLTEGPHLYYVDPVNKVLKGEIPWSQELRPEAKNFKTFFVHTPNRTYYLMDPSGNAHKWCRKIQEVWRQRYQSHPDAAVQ

[9] = biological target: PKN1 (human) (UniProt Q16512); details: compound 10.0 µM
[10] = tested on: PRKACA (mouse); details: compound 10.0 µM; accession and sequence are those of the human protein
[11] = biological target: PRKACB (human) (UniProt P22694); details: compound 10.0 µM
[12] = biological target: PRKCD (human) (UniProt Q05655); details: compound 10.0 µM
[13] = biological target: PRKCE (human) (UniProt Q02156); details: compound 10.0 µM
PRKCE (human), sequence (Q02156 whole entry, looked up): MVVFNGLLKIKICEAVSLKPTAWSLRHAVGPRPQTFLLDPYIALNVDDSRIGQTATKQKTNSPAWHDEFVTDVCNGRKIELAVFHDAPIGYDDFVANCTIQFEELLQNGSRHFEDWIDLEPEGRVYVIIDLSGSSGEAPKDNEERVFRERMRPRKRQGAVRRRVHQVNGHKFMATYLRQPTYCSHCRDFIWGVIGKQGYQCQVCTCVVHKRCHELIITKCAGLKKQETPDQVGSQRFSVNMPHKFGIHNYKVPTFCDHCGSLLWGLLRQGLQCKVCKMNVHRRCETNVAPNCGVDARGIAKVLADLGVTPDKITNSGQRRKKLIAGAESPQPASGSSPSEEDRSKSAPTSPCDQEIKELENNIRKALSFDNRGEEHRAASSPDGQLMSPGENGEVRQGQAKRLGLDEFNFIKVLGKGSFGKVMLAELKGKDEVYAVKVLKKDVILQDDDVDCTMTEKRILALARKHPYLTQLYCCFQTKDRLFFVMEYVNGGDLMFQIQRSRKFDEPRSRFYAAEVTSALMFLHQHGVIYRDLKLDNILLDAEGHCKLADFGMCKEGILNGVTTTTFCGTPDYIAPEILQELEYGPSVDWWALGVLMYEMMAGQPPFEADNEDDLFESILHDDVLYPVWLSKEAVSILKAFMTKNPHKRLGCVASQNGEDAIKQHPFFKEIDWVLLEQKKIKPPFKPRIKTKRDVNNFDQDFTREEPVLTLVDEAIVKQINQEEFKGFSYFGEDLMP

[14] = biological target: PRKCG (human) (UniProt P05129); details: compound 10.0 µM
[15] = biological target: PRKCH (human) (UniProt P24723); details: compound 10.0 µM
[16] = biological target: PRKCI (human) (UniProt P41743); details: compound 10.0 µM
[17] = biological target: PRKCQ (human) (UniProt Q04759); details: compound 10.0 µM
[18] = biological target: PRKX (human) (UniProt P51817); details: compound 10.0 µM
[19] = biological target: RPS6KA1 KD1 (human) (UniProt Q15418); details: compound 10.0 µM
RPS6KA1 KD1 (human), sequence (Q15418 whole entry, looked up): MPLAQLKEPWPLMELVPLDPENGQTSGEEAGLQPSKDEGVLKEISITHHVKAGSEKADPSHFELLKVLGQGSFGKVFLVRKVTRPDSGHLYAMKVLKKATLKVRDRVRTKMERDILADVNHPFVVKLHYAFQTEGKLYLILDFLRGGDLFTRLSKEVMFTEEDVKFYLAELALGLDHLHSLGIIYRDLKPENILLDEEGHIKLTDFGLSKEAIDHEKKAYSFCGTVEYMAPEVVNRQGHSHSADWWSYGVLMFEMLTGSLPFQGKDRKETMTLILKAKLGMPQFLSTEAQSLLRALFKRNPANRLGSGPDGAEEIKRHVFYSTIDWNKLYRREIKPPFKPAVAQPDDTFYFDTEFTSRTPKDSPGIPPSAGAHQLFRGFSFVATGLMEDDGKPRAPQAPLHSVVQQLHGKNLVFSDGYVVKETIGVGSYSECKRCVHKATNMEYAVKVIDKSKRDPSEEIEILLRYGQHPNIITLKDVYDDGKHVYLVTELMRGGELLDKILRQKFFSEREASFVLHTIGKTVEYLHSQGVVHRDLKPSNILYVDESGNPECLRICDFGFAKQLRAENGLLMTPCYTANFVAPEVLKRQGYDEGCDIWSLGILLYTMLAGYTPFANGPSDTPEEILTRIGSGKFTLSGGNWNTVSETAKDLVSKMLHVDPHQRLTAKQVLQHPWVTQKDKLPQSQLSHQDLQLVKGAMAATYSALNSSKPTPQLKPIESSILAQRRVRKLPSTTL

[20] = biological target: RPS6KA2 KD1 (human) (UniProt Q15349); details: compound 10.0 µM
[21] = biological target: RPS6KA3 KD1 (human) (UniProt P51812); details: compound 10.0 µM
[22] = biological target: RPS6KA4 KD1 (human) (UniProt O75676); details: compound 10.0 µM
[23] = biological target: RPS6KA5 KD1 (human) (UniProt O75582); details: compound 10.0 µM
RPS6KA5 KD1 (human), sequence (O75582 whole entry, looked up): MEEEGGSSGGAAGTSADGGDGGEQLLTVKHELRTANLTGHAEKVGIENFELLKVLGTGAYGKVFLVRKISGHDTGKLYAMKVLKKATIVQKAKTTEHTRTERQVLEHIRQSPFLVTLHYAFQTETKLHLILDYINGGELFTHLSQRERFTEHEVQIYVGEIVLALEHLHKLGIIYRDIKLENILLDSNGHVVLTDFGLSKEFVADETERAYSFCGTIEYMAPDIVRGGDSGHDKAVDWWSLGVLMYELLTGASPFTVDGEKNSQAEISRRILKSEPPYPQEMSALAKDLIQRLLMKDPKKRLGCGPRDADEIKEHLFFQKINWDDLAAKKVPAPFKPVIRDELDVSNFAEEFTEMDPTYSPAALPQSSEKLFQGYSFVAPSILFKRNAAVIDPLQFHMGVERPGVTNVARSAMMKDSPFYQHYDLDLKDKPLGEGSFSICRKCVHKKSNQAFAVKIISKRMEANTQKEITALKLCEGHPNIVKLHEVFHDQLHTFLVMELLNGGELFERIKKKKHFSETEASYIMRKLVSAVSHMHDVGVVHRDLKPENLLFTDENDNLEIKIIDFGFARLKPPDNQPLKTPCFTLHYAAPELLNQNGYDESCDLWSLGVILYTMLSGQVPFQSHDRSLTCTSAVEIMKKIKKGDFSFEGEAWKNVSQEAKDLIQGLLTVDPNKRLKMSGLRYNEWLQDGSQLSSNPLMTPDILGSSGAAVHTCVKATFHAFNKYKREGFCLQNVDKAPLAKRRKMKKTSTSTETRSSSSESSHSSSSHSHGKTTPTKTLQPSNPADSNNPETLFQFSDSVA

[24] = biological target: RPS6KA6 KD1 (human) (UniProt Q9UK32); details: compound 10.0 µM
[25] = biological target: SGK2 (human) (UniProt Q9HBY8); details: compound 10.0 µM
[26] = biological target: SGK3 (human) (UniProt Q96BR1); details: compound 10.0 µM
[27] = biological target: STK32B (human) (UniProt Q9NY57); details: compound 10.0 µM
STK32B (human), sequence (Q9NY57 whole entry, looked up): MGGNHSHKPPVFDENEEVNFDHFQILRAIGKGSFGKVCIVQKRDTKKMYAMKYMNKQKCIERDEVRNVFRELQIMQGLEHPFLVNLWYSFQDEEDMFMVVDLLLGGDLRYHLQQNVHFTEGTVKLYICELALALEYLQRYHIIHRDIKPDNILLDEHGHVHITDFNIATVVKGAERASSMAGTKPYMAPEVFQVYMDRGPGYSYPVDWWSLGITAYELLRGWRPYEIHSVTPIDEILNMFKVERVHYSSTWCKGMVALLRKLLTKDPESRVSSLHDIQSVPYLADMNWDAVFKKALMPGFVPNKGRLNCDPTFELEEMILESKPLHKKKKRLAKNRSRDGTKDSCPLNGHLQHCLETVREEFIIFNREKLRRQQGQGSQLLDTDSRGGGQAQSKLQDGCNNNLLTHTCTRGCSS

AKT3 (human), sequence (Q9Y243 whole entry, looked up): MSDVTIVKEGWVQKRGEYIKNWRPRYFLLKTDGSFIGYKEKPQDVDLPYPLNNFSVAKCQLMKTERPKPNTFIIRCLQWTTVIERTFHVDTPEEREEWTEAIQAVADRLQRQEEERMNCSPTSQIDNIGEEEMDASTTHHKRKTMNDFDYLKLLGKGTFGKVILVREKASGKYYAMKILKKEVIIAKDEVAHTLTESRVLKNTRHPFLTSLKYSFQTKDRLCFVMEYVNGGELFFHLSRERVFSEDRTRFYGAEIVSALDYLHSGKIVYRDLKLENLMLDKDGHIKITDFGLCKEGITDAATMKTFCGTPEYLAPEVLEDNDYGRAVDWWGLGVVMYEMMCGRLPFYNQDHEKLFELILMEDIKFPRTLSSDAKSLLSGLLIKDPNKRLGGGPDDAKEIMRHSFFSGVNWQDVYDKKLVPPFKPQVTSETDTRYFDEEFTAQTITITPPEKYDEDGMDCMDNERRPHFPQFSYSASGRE

Compound	inhibition [1] [%]	inhibition [2] [%]	inhibition [3] [%]	inhibition [4] [%]	inhibition [5] [%]	inhibition [6] [%]	inhibition [7] [%]	inhibition [8] [%]	inhibition [9] [%]	inhibition [10] [%]	inhibition [11] [%]	inhibition [12] [%]	inhibition [13] [%]	inhibition [14] [%]	inhibition [15] [%]	inhibition [16] [%]	inhibition [17] [%]	inhibition [18] [%]	inhibition [19] [%]	inhibition [20] [%]	other results
NC(=O)c1ccc(-c2nc(-c3ccccn3)c(-c3ccc4c(c3)OCCO4)[nH]2)cc1	2	0	0	0	0	2	7	0	0	0	3	0	1	0	0	1	1	0	0	0	inhibition [21]: 0%; inhibition [22]: 0%; inhibition [23]: 2%; inhibition [24]: 5%; inhibition [25]: 3%; inhibition [26]: 1%; inhibition [27]: 0%
C=CC(=O)c1ccc2ccccc2c1	0	0	0	0	0	0	0	0	2	0	0	0	0	0	0	0	0	0	0	0	inhibition [21]: 0%; inhibition [22]: 0%; inhibition [23]: 0%; inhibition [24]: 0%; inhibition [25]: 0%; inhibition [26]: 0%; inhibition [27]: 0%
O=C1NC(=O)C(c2ccccc2[N+](=O)[O-])=C1Nc1ccc(O)c(Cl)c1	0	0	0	6	12	23	0	0	0	0	5	9	4	0	2	0	0	2	7	0	inhibition [21]: 0%; inhibition [22]: 0%; inhibition [23]: 0%; inhibition [24]: 9%; inhibition [25]: 0%; inhibition [26]: 0%; inhibition [27]: 0%
